Holding throughout (assay): DTP human tumour cell line panel, 48 h
Experiment [1] concerns NCI/ADR-RES ovarian.
Experiment [2] relates to T-47D breast.
For experiment [3], the system named is HCT-116 colon.
For experiment [4], the system named is MALME-3M melanoma.
For experiment [5], the system named is LOX IMVI melanoma.
The test system of experiment [6] is SF-295 CNS.
Experiment [7] concerns UACC-62 melanoma.
Experiment [8] relates to HS 578T breast.
For experiment [9], the system named is SW-620 colon.
Experiment [10] concerns A498 renal.

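Exposure lasted 48 hours, with cells grown in 96-well plates and compounds tested at five concentrations. GI50 = concentration required for 50% inhibition of growth. At the TGI there is no net growth.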

On to `O=P(O)(O)CN1CCNCCN(CP(=O)(O)O)CCNCC1`, for which the concentration for total growth inhibition (TGI) in [1], in experiment [2], in experiment [3], in experiment [4], in experiment [5] and in experiment [6] was more than 100 µM each time. The total growth inhibition concentration (TGI) in experiment [7], in [8], in experiment [9] and in [10] was more than 100 µM in each case.
As to `CC1(C)CCC2(C(=O)OC3OC(CO)C(O)C(O)C3O)CCC3(CO)C(=CCC4C5(C)CC(O)C(O)C(C)(C(=O)OC6OC(CO)C(O)C(O)C6O)C5CCC43C)C2C1` (stereo not given), the TGI in experiment [1], in [2], in experiment [3], in [4], in [5] and in experiment [6] was more than 100 µM throughout. Besides, the TGI in [7], in [8], in experiment [9] and in experiment [10] was more than 100 µM in each case.
In the case of `O=C1C=C(N2CCN(c3ccccn3)CC2)C(=O)c2c(O)ccc(O)c21`, the TGI – broadly, the concentration giving total growth inhibition – in [1] was 11.5 µM; in experiment [2] it was more than 100 µM; in [3], 10.3 µM; in [4], 1.63 µM; in experiment [5], more than 45 µM; in experiment [6], 51.5 µM. Moreover, the total growth inhibition concentration (TGI) in [7] was 16.1 µM; in experiment [8], more than 70.3 µM; in [9], 45.2 µM; in experiment [10] it was 52.2 µM.
On to `COC(=O)C(C(=O)C(=O)NC1Nc2ccc(C)cc2S1)c1nc2ccc(Cl)cc2[nH]c1=O` (stereo not given), for which the TGI in experiment [1], in [2], in [3], in experiment [4], in experiment [5] and in experiment [6] was more than 100 µM each time. For the same compound, the total growth inhibition concentration (TGI) in experiment [7], in experiment [8], in experiment [9] and in [10] was more than 100 µM in each case.
As to `O=C1/C(=C\c2cccc(Oc3ccccc3)c2)SC(c2ccccc2)N1c1cccc([N+](=O)[O-])c1` (stereo not given), the TGI in [1], in [2], in [3], in experiment [4], in experiment [5] and in experiment [6] was more than 100 µM each time. Moreover, the TGI in experiment [7], in experiment [8], in experiment [9] and in experiment [10] was more than 100 µM in each case.
With `Oc1[nH]c2ccccc2c1/C=c1/cc2c(c(-c3ccc(C(F)(F)F)cc3)n1)=Nc1ccccc1-2`, the GI50 (usually the concentration giving 50% growth inhibition) in experiment [1] was 1.9 µM; in experiment [2], 3.05 µM; in [3], 2.9 µM; in experiment [4], 9.14 µM; in [5], 8.87 µM; in experiment [6], 2.99 µM. Moreover, the GI50 is 6.32 µM in experiment [7], 10.3 µM in [8], 2.4 µM in experiment [9] and 5.2 µM in experiment [10]. Also, the total growth inhibition concentration (TGI) amounted to 18.8 µM in experiment [1]; 13.9 µM in experiment [2]; 10.1 µM in experiment [3]; 27.4 µM in experiment [4]; 22.5 µM in experiment [5]; 28.4 µM in [6]. For the same compound, the concentration for total growth inhibition (TGI) is 21.9 µM in experiment [7], 69.9 µM in experiment [8], 13 µM in experiment [9] and 38.6 µM in experiment [10].
Regarding `CCCCCCCCCCCCCCCCOCC(Cl)COP(=O)(O)OP(=O)(O)OCC1OC(n2cnc3c(N)ncnc32)C(O)C1O` (stereo not given), the total growth inhibition concentration (TGI) in [1], in experiment [2], in experiment [3], in experiment [4], in experiment [5] and in experiment [6] was more than 100 µM in each case. Further, the TGI in experiment [7], in experiment [8], in [9] and in experiment [10] was more than 100 µM in each case.
Turning to `Cc1ccc(/C=C2\CN(C)CC3C2=NC(=S)NC3c2ccc(C)cc2)cc1` (stereo not given), the TGI in [1] was more than 100 µM; in experiment [2] it was 96.9 µM; in experiment [3] it was more than 100 µM; in experiment [4], more than 100 µM; in experiment [5] it was more than 100 µM; in experiment [6] it was more than 100 µM. Further, the total growth inhibition concentration (TGI) in experiment [7], in experiment [8], in experiment [9] and in [10] was more than 100 µM throughout.
Take `CC1=C2NCN(C)N=C2C(C#N)(C#N)C1(C#N)C#N`: the total growth inhibition concentration (TGI) in [1] was more than 68.5 µM; in [2], 59 µM; in [3], 57.4 µM; in experiment [4], 44.2 µM; in experiment [5], more than 54.4 µM; in experiment [6], more than 100 µM. For the same compound, the TGI in experiment [7] was 46.8 µM; in [8], more than 96.3 µM; in [9], 42.2 µM; in experiment [10] it was more than 100 µM.
As to `NC(=S)N/N=C\CC(O)(C(F)(F)F)C(F)(F)F`, the concentration for total growth inhibition (TGI) in [1], in [2], in [3], in experiment [4], in experiment [5] and in [6] was more than 10 µM each time. Further, the total growth inhibition concentration (TGI) in [7], in experiment [8], in experiment [9] and in experiment [10] was more than 10 µM each time.
As for `CCCNC(=O)CCC(C)[C@H]1CCC2C3C(C[C@H](OC(C)=O)[C@@]21C)[C@@]1(C)CCC2(C[C@H]1C[C@H]3OC(C)=O)OOC1(CCCCC1)OO2` (stereo not given in full), the TGI in experiment [1] was 8.45 µM; in experiment [2] it was 6.44 µM; in experiment [3], more than 61.5 µM; in experiment [4] it was 6.04 µM; in [5], 3.52 µM; in experiment [6], 39.7 µM. Also, the TGI in [7] was more than 100 µM; in experiment [8], more than 53 µM; in [9], more than 75.5 µM; in [10], 50.1 µM.
For the compound `O=C1OI(C#Cc2ccccc2)c2ccccc21`, the total growth inhibition concentration (TGI) was more than 100 µM in experiment [1]; 10.8 µM in [2]; 5.8 µM in experiment [3]; 5.64 µM in experiment [4]; more than 100 µM in [5]; 28.4 µM in [6]. In addition, the TGI in experiment [7] was determined as 19.3 µM; in experiment [8], 26.6 µM; in experiment [9] it was 5.14 µM; in experiment [10], 16.4 µM.
Turning to `CC(=O)c1ccc(NC(=O)CSc2nc(C)nc3c2sc(=S)n3-c2ccccc2)cc1`, the total growth inhibition concentration (TGI) in experiment [1], in experiment [2], in experiment [3], in experiment [4], in experiment [5] and in [6] was more than 3.16 µM in each case. Further, the TGI in experiment [7], in experiment [8], in experiment [9] and in experiment [10] was more than 3.16 µM throughout.

The values are drawn from PubChem BioAssay (NCI).
